Consider one compound from patent publication US10960020B2, “Modulation of PCSK9 and LDLR through DRP1 inhibition” (THE BRIGHAM AND WOMEN'S HOSPITAL, INC., priority 2016, dated 2021).

The structures appear in SMILES notation.

In series [1] the test system is naïve wild type rodents. To be noted: up to ten weeks after treatment, Mdivi-1 injection; cited from earlier work.
The subject of series [2] is diabetic apolipoprotein E-deficient mice. To be noted: cited from earlier work.
Series [3] relates to LDLR protein. Briefly: Western blot, HepG2 LDLR protein. Conditions: HepG2, 24 hours; Mdivi-1 50 μM, pitavastatin 1 μM, T0901317 1 μM. It counts as cell-based, human.
Series [4] has as its system BCL-XL. Briefly: BCL-XL mRNA and protein, HepG2. It counts as cell-based, human. To be noted: HepG2, Mdivi-1 50 μM, 24 hours. An excerpt: (§1) Human cells and mouse liver was homogenized with TriZolTM (Life Technologies, Grand Island, N.Y.) to isolate RNA. QuantiTectTM Reverse Transcription Kit (Qiagen, Hilden, Germany) was used for reverse transcription on total RNA. cDNA was generated using the Quanta gScriptTM cDNA Synthesis Kit (Bioscience Inc., Gaithersburg, Md.). mRNA levels were quantified on a 7900HT real-time PCR system (Thermo Fisher Scientific) using TaqManTM real-time PCR with the following probes: Hs02758991_g1 (human GAPDH); Mm99999915_g1 (mouse Gapdh); Hs00236329 m1 (human BCL2L1); Hs00247147_m1 (human DRP1); Hs00545399_m1 (human PCSK9); Mm01263610_m1 (mouse Pcsk9); Hs00168352_m1 (human HMGCR); […]); Hs00181192_m1 (human LDLR); Mm00440169_m1 (mouse Ldlr); Hs01088691_m1 (human SREBP1); Mm00550338_m1 (mouse Srebp1); Hs00231674_m1 (human SREBP1a); custom primer (human SREBP1c); Hs01081784_m1 (human SREBP2); Mm01306292_m1 (mouse Srebp2); Hs01005622_m1 (human FASN); […]); Hs00167041_m1 (human HNF1A); Mm00493434_m1 (mouse Hnf1a); Hs00171168 (human APOE); Hs01059118_m1 (human ABCA1); Hs01103582_s1 (human JUN). Mouse SREBP-1c was analyzed by SYBERTM green PCR with the following primers: [NT] […] Protein concentrations were determined by the Pierce BCA AssayTM (Thermo Fisher Scientific). […] Protein levels were normalized to β-ACTIN, α-TUBULIN, or LAMIN A/C with the use of NIH ImageJ software for quantification.

The test system of series [5] is BECLIN1. As to the kind of experiment: BECLIN1 mRNA and protein. The format is cell-based, human. To be noted: 24 hours.
Excerpt: as §1

In series [6] the test system is DRP1 protein. Briefly: Western blot, HepG2 DRP1 protein. The format is cell-based, human. Conditions: HepG2, Mdivi-1 50 μM, 24 hours. (A western blot detects proteins with antibodies after separation by electrophoresis.)
In series [7] the test system is ischemia/reperfusion injury-induced myocardial infarction. To be noted: mice; cited from earlier work.
In series [8] the test system is HepG2 cells. As to the kind of experiment: Mitochondrial membrane potential by TMRE, HepG2. Conditions: HepG2, Mdivi-1 50 μM, 24 hours. It counts as cell-based, human. The procedure:
Mitochondrial membrane potential was assessed by TMRE reagent (Abcam) as previously described^21.

The test system of series [9] is cellular PCSK9 protein. As to the kind of experiment: Western blot, HepG2 cellular PCSK9 protein. The format is cell-based, human. Conditions: HepG2, Mdivi-1 50 μM, 24 hours.

As for `COc1cc(-n2c(S)nc3ccccc3c2=O)c(Cl)cc1Cl` [Mdivi-1, 3-(2,4-Dichloro-5-methoxyphenyl)-2,3-dihydro-2-thioxo-4(1H)-quinazolinone], the “abnormal phenotypes or cytotoxicity” value in series [1] is recorded as “no abnormal phenotypes or cytotoxicity”. In addition, in series [2], the “oxidative stress and inflammation” value is “reduces”. In series [3], the “HepG2 LDLR protein increase” value is 5.8 fold. Moreover, in series [4], the “BCL-XL abundance (protein)” value is “increased” and the “BCL-XL expression (BCL2L1 mRNA)” value was “increased”. For the same compound, the BECLIN1 protein abundance result in series [5] (HepG2, Mdivi-1 50 μM) is reported as “did not alter”. The “BECLIN1 mRNA” value in series [5] (human hepatocytes, Mdivi-1 50 μM) is “did not alter”. For the same compound, in [6], the DRP1 protein content result is given as “without altering”. Also, the “ischemia/reperfusion injury-induced myocardial infarction” value in series [7] is recorded as “reduces”. Further, the “Mitochondrial function, assessed by mitochondrial membrane potential” value in [8] is on record as “not noticeably different”. The “Cellular PCSK9 protein abundance” value in [9] is on record as “reduced”.
